In US11419916B2, “Methods and compositions for inducing differentiation of human brown adipocyte progenitors” (Energesis Pharmaceuticals, Inc., priority 2014, dated 2022):
Structures can show the parent of a compound that is named as a salt.

Tests used:
[1] = system: CD31-cells; experiment: Light microscopic photos of cell morphology, brown adipocyte differentiation; type: cell-based, human; details: FIGS. 23A-23H
Description: (§1) Cells were seeded at 10,000 per cm^2 in 0.2% gelatin coated plates (48-well tissue culture, Chemglass #CLS-3500-048), cultured until confluency (2-4 days) at 37° C. in Endothelial cell growth medium-2 (EGM2) (BulletKit growth medium, Lonza #CC-3162) and until differentiation (10-16 more days). After 2 or 3 days in EGM2 medium the cells were induced to differentiate by replacing the medium with an adipogenic medium, which is a modification of the adipogenic medium described by Rodriguez et al. and may or may not contain a differentiation inducing agent (e.g., PPARγ agonist). The MDM described above contains: DMEM/Ham's F-12 50/50 Mix (3.151 g/l, 17.5 mM D-glucose, 3.651 g/l L-glutamine) (Cellgro #10-090-CV), 5 μg/ml (0.86 μM) insulin, 1 μM dexamethasone, 100 μM 3-isobutyl-1-methylxanthine, 0.2 nM 3,3′,5-triiodo-L-thyronine, 10 μg/ml (127 nM) transferrin, and 1% penicillin-streptomycin. If rosiglitazone is used as a differentiation-inducing agent, it can be supplied at 1 μM or any other concentration sufficient to induce differentiation of BAT progenitor cells into adipocytes.
Pictures of cells were taken using a hand-held digital camera (Nikon Coolpix 950) and inverted microscope (Nikon TMS) used for cell culture observations; images were optimized using Adobe Photoshop Elements 8 functions for Auto Contrast and Auto Levels.

[2] = system: CD31-cells (BAT progenitor cells isolated from human skeletal muscle); experiment: Quantification of UCP1 and PPARγ2 mRNA (normalized to cyclophilin A) by multiplexed TaqMan real-time PCR to quantify differentiation into brown adipocytes; type: cell-based
Description: A robust method, previously disclosed in WO2013071063 and incorporated herein by reference, was used for detection of CD31-cell differentiation into brown adipocytes by simultaneously quantifying mRNA species corresponding to the brown adipocyte marker UCP1, the adipocyte marker PPARγ2, and the “housekeeping” gene cyclophilin A which was used as the internal control.
This method permits analysis of a large number of samples to identify agents that enhance the differentiation of CD31-cells into brown adipocytes. When differentiated into brown adipocytes CD31-cells express much higher levels of UCP1 and PPARγ2 mRNA for a given level of cyclophilin A. UCP1 and PPARγ2 mRNA levels normalized to cyclophilin A mRNA levels give an indication of the level of differentiation of the CD31-cells into brown adipocytes, independent of the total number of cells in the sample.
Quantification of UCP1, PPARγ2 and cyclophilin A mRNA by multiplexed TaqMan real-time PCR was thus used to quantify differentiation of the CD31-cells into brown adipocytes.
as §1, with “The MDM described above contains: DMEM/Ham's F-12 50/50 Mix (3.151 g/l, 17.5 mM D-glucose, 3.651 g/l L-glutamine) (Cellgro #10-090-CV), 5 μg/ml (0.86 μM) insulin, 1 μM dexamethasone, 100 μM 3-isobutyl-1-methylxanthine, 0.2 nM 3,3′,5-triiodo-L-thyronine, 10 μg/ml (127 nM) transferrin, and 1% penicillin-streptomycin.” left out
Total RNA was prepared from cells using PureLink RNA Isolation Kit (Invitrogen #12183-016) First strand cDNA were synthesized using the High Capacity cDNA Reverse Transcription kit (Applied Biosystems, Foster City, Calif.) and random primers.
Quantitative real-time PCR was performed using an Applied Biosystems StepOnePlus™ instrument, TaqMan Gene Expression Master Mix (Applied Biosystems #4369016), and custom TaqMan gene expression probes and primers for human uncoupling protein-1 “UCP1” (GenBank NM_021833) and for human peptidylprolyl isomerase A “cyclophilin A” (GenBank NM_021130).
Cyclophilin A was used as a control to account for any variations due to the efficiency of reverse transcription. Arbitrary units were determined by normalizing target mRNA levels to cyclophilin A mRNA levels (based on Cts).

[3] = system: CD31-cells (brown adipocyte progenitors); experiment: Quantification of UCP1 protein by immunohistochemistry (IHC); type: cell-based, human; details: total intensity of UCP1 signal normalized to cell number
Description: Differentiation of brown adipocyte progenitors into brown adipocytes can be detected through quantification of UCP1 protein by immunohistochemistry (IHC).
Culturing and differentiation of CD31-cells into brown adipocytes were performed using adipogenic differentiation medium lacking (Minimal Differentiation Medium, MDM) or containing 1 μM rosiglitazone (Reference Differentiation Medium, RDM). After 15 days of differentiation cells were fixed with 4% Paraformaldehyde PBS pH 7.4, and incubated with a UCP1 antibody (Abcam ab23841) and Alexafluor 488 goat anti-rabbit antibody to quantify relative UCP1 levels (green) according to standard protocols. Prior to fixation of cells, nuclei were labeled with 5 μM DAPI (blue) for 10 minutes. Each treatment condition was evaluated in triplicate in a 96-well plate corresponding to approximately 360-480 cells for each data point in total. The InCell 1000 Developer Toolbox software was used to develop an automated cell detection script to measure UCP1 signal intensity, using the nuclei and cytoplasm detection algorithms. As a readout, total intensity of UCP1 signal within the cell was used, normalized to cell number.

## O=c1c(O)c(-c2ccc(O)cc2)oc2cc(O)cc(O)c12 [kaempferol]
[1]
  brown adipocyte differentiation (light microscopy): promote brown adipocyte formation
[2]
  differentiation of BAT progenitor cells into brown adipocytes and/or expression of UCP1, PPARγ2 mRNA: promote the differentiation of BAT progenitor cells into brown adipocytes and/or induce the expression of UCP1

## O=C(O)c1cc(-c2ccc(F)cc2F)ccc1O [Diflunisal]
[1]
  brown adipocyte differentiation (light microscopy): promote brown adipocyte formation
[3]
  UCP1 protein signal (IHC), differentiation of brown adipocyte progenitors into brown adipocytes: identified using this technique

## CCOC(=O)Oc1c(OC)cc(C(=O)O[C@@H]2C[C@@H]3CN4CCc5c([nH]c6cc(OC)ccc56)[C@H]4C[C@@H]3[C@H](C(=O)OC)[C@H]2OC)cc1OC [Syrosingopine]
[1]
  brown adipocyte differentiation (light microscopy): promote brown adipocyte formation
[3]
  UCP1 protein signal (IHC), differentiation of brown adipocyte progenitors into brown adipocytes: identified using this technique

## CCCN(CCC)S(=O)(=O)c1ccc(C(=O)O)cc1 [Probenecid]
[1]
  brown adipocyte differentiation (light microscopy): promote brown adipocyte formation
[3]
  UCP1 protein signal (IHC), differentiation of brown adipocyte progenitors into brown adipocytes: identified using this technique

## CCN(CC)CCNC(=O)c1cc(S(C)(=O)=O)ccc1OC [Tiapride hydrochloride]
[1]
  brown adipocyte differentiation (light microscopy): promote brown adipocyte formation
[3]
  UCP1 protein signal (IHC), differentiation of brown adipocyte progenitors into brown adipocytes: identified using this technique

B1: BMP-7: recombinant human bone morphogenetic protein 7, UniProt P18075 (protein, UniProt P18075 293-431, looked up)
Bone morphogenetic protein 7: STGSKQRSQNRSKTPKNQEALRMANVAENSSSDQRQACKKHELYVSFRDLGWQDWIIAPEGYAAYYCEGECAFPLNSYMNATNHAIVQTLVHFINPETVPKPCCAPTQLNAISVLYFDDSSNVILKKYRNMVVRACGCH
[1]
  brown adipocyte differentiation (light microscopy): promote brown adipocyte formation
[2]
  differentiation of BAT progenitor cells into brown adipocytes and/or expression of UCP1, PPARγ2 mRNA: promote the differentiation of BAT progenitor cells into brown adipocytes and/or induce the expression of UCP1
